Read-outs that look alike come from different tables or passages of the source.
What was measured:
[1] = tested on: Human breast cancer cell line [MDA-MB-231]; test: Anti-proliferative activity (WST-8) of BRD4 targeted PROTAC in MDA-MB-231; assay type: cell-based; conditions: Homo sapiens, MDA-MB-231, 72 hours
Procedure: (§1) Human breast cancer cell line [MDA-MB-231] was cultured in RPMI medium with 10% petal bovine serum, penicillin [100 U/ml] and streptomycin [[…]]. The synthesized compound was prepared as a stock solution of 10 mM or 50 mM dissolved in DMSO [dimethyl sulfoxide], and it was sequentially diluted to treat the cell line.
In order to observe inhibition of cell growth, cells were aliquoted into concentrations of 5,000 cells/well at 96 well plates, and then were treated with samples prepared at various concentrations for 72 hours. The cell survival was calculated by steps of adding in each well […] of water soluble tetrazolium salt (WST-8) which produces formazon in response to dehydrogenase present in the electron transport chain in mitochondria, incubating for 2 hours, measuring the absorbance at 450 nm, and calculating by GraphicPad Prism 8.0 software.

[2] = biological target: BRD4 (Homo sapiens, UniProt O60885); test: BRD4 protein degradation by western blot in MDA-MB-231 cells; assay type: cell-based; parameters: BRD4 expressed in cells; endogenous in cells; host or cells: MDA-MB-231; conditions: MDA-MB-231, 24 hours; for DC50: 50% inhibition of protein expression, read-out: DC50 of BRD4-targeted PROTAC
Procedure: as §1
To evaluate the PROTAC's degradation ability to BRD4 expressed in cells, the cells were aliquoted into a 6 well plate at a concentration of 5×10^5 cells/ml, and then the sample was treated for 24 hours. In order to conduct western blotting assay to confirm protein expression, the cell treated with the compound was treated for 30 minutes with 70 μL of RIPA buffer wherein protease inhibitor is added. Then, cell lysate was collected on ice using a scraper and centrifuged at 4° C. 15,000 rpm for 30 minutes to obtain a supernatant containing protein. Then, SDS-PAGE is conducted for 10 μg of protein per each sample, and the protein is transferred to a membrane. The protein is reacted with antibodies of anti-BRD4, anti-tubulin and anti-GAPDH at 4° C. for 16 hours, and then, reacted with secondary antibodies at room temperature for 1 hour. The protein expression is confirmed using SUPERSIGNAL™ WEST PICO PLUS chemiluminescence substrate and image analyzer. The protein expression was normalized based on the expression value of β-tublin or GAPDH. The amount of protein expression in each sample was measured in % based on the sample treated with 0.1% DMSO vehicle which was set to 100%. The amount of protein expression was quantified using the IMAGE J PROGRAM. The change in the amount of protein expression due to the treatment of compound (DC50: the concentration of compounds where the 50% inhibition of protein expression is achieved) was calculated using […] PRISM 8.0 software.

[3] = WST-8, read-out: IC50 of BRD4-targeted PROTAC (cell proliferation)
[4] = read-out: concentration at which cancer cell proliferation is effectively inhibited

SMILES | IC50 [1, 3] | IC50 [1, 4] | BRD4 degradation (in words) [2] | DC50 [2]
Cc1sc2c(c1C)C(c1ccc(Cl)cc1)=N[C@@H](CC(=O)NCc1cn(CCOCCOCCOCCNc3cccc4cnn(C5CCC(=O)NC5=O)c(=O)c34)nn1)c1nnc(C)n1-2 (stereo partly drawn) [Ex. 32, 2-((S)-4-(4-chlorophenyl)-2,3,9-trimethyl-6H-thieno[3,2-f][1,2,4]triazolo[4,3-a][1,4]diazepin-6-yl)-N-((1-(2-(2-(2-(2-((3-(2,6-dioxopiperidin-3-yl)-4-oxo-3,4-dihydrophthalazin-5-yl)amino)ethoxy)ethoxy)ethoxy)ethyl)-1H-1,2,3-triazol-4-yl)methyl)acetamide] | > 1000 nM |  |  | 
Cc1sc2c(c1C)C(c1ccc(Cl)cc1)=N[C@@H](CC(=O)NCc1cn(CCOCCOCCNc3cccc4c(=O)n(C5CCC(=O)NC5=O)ncc34)nn1)c1nnc(C)n1-2 (stereo partly drawn) [Ex. 33, 2-[(9S)-7-(4-chlorophenyl)-4,5,13-trimethyl-3-thia-1,8,11,12-tetraazatricyclo[8.3.0.0^2,6]trideca-2(6),4,7,10,12-pentaen-9-yl]-N-[(1-{2-[2-(2-{[2-(2,6-dioxopiperidin-3-yl)-1-oxo-1,2-dihydrophthalazin-5-yl]amino}ethoxy)ethoxy]ethyl}-1H-1,2,3-triazol-4-yl)methyl]acetamide] | > 1000 nM |  |  | 171 nM
Cc1sc2c(c1C)C(c1ccc(Cl)cc1)=N[C@@H](CC(=O)NCCOCCOCCOCCn1cc(CNc3cccc4cnn(C5CCC(=O)NC5=O)c(=O)c34)nn1)c1nnc(C)n1-2 (stereo partly drawn) [Example 36, 2-[(9S)-7-(4-chlorophenyl)-4,5,13-trimethyl-3-thia-1,8,11,12-tetraazatricyclo[8.3.0.0^2,6]trideca-2(6),4,7,10,12-pentaen-9-yl]-N-{2-[2-(2-{2-[4-({[3-(2,6-dioxopiperidin-3-yl)-4-oxo-3,4-dihydrophthalazin-5-yl]amino}methyl)-1H-1,2,3-triazol-1-yl]ethoxy}ethoxy)ethoxy]ethyl}acetamide] | > 1000 nM |  |  | 663 nM
Cc1sc2c(c1C)C(c1ccc(Cl)cc1)=N[C@@H](CC(=O)NCCCCCNc1ccc3c(=O)n(C4CCC(=O)NC4=O)ncc3c1)c1nnc(C)n1-2 (stereo partly drawn) [Example 37, 2-((S)-4-(4-chlorophenyl)-2,3,9-trimethyl-6H-thieno[3,2-f][1,2,4]triazolo[4,3-a][1,4]diazepin-6-yl)-N-(5-((2-(2,6-dioxopiperidin-3-yl)-1-oxo-1,2-dihydrophthalazin-6-yl)amino)pentyl)acetamide] | < 1 nM | < 250 nM | effectively degraded | 0.173 nM
Cc1sc2c(c1C)C(c1ccc(Cl)cc1)=N[C@@H](CC(=O)NCCOc1cccc3c(=O)n(C4CCC(=O)NC4=O)ncc13)c1nnc(C)n1-2 (stereo partly drawn) [Example 46, 2-((S)-4-(4-chlorophenyl)-2,3,9-trimethyl-6H-thieno[3,2-f][1,2,4]triazolo[4,3-a][1,4]diazepin-6-yl)-N-(2-((2-(2,6-dioxopiperidin-3-yl)-1-oxo-1,2-dihydrophthalazin-5-yl)oxy)ethyl)acetamide] | > 1000 nM |  |  | 
Cc1sc2c(c1C)C(c1ccc(Cl)cc1)=N[C@@H](CC(=O)NCCCCCNc1cccc3c(=O)n(C4CCC(=O)NC4=O)ncc13)c1nnc(C)n1-2 (stereo partly drawn) [Example 51, 2-[(9S)-7-(4-chlorophenyl)-4,5,13-trimethyl-3-thia-1,8,11,12-tetraazatricyclo[8.3.0.0^2,6]trideca-2(6),4,7,10,12-pentaen-9-yl]-N-(5-{[2-(2,6-dioxopiperidin-3-yl)-1-oxo-1,2-dihydrophthalazin-5-yl]amino}pentyl)acetamide] | 101 nM |  |  | 

Results, then the compound that gave them:

IC50 [1, 3] | IC50 [1, 4] | BRD4 degradation (in words) [2] | DC50 [2] | SMILES
98.6 nM | < 250 nM | effectively degraded | 3.7 nM | Cc1sc2c(c1C)C(c1ccc(Cl)cc1)=N[C@@H](CC(=O)Nc1ccc(OCCOCCOCCOCCNc3ccc4cnn(C5CCC(=O)NC5=O)c(=O)c4c3)cc1)c1nnc(C)n1-2 (stereo partly drawn) [Ex. 29, 2-((S)-4-(4-chlorophenyl)-2,3,9-trimethyl-6H-thieno[3,2-f][1,2,4]triazolo[4,3-a][1,4]diazepin-6-yl)-N-(4-(2-(2-(2-(2-((3-(2,6-dioxopiperidin-3-yl)-4-oxo-3,4-dihydrophthalazin-6-yl)amino)ethoxy)ethoxy)ethoxy)ethoxy)phenyl)acetamide]
> 1000 nM |  |  |  | Cc1sc2c(c1C)C(c1ccc(Cl)cc1)=N[C@@H](CC(=O)Nc1cccc(OCCOCCOCCNc3cccc4c(=O)n(C5CCC(=O)NC5=O)ncc34)c1)c1nnc(C)n1-2 (stereo partly drawn) [Ex. 30, 2-[(9S)-7-(4-chlorophenyl)-4,5,13-trimethyl-3-thia-1,8,11,12-tetraazatricyclo[8.3.0.0^2,6]trideca-2(6),4,7,10,12-pentaen-9-yl]-N-(3-{2-[2-(2-{[2-(2,6-dioxopiperidin-3-yl)-1-oxo-1,2-dihydrophthalazin-5-yl]amino}ethoxy)ethoxy]ethoxy}phenyl)acetamide]
> 1000 nM |  |  |  | Cc1sc2c(c1C)C(c1ccc(Cl)cc1)=N[C@@H](CC(=O)NCc1cn(CCOCCOCCNc3cccc4cnn(C5CCC(=O)NC5=O)c(=O)c34)nn1)c1nnc(C)n1-2 (stereo partly drawn) [Ex. 31, 2-((S)-4-(4-chlorophenyl)-2,3,9-trimethyl-6H-thieno[3,2-f][1,2,4]triazolo[4,3-a][1,4]diazepin-6-yl)-N-((1-(2-(2-(2-((3-(2,6-dioxopiperidin-3-yl)-4-oxo-3,4-dihydrophthalazin-5-yl)amino)ethoxy)ethoxy)ethyl)-1H-1,2,3-triazol-4-yl)methyl)acetamide]
> 1000 nM |  |  | 38.6 nM | Cc1sc2c(c1C)C(c1ccc(Cl)cc1)=N[C@@H](CC(=O)NCc1cn(CCOCCOCCOCCNc3cccc4c(=O)n(C5CCC(=O)NC5=O)ncc34)nn1)c1nnc(C)n1-2 (stereo partly drawn) [Example 34, 2-[(9S)-7-(4-chlorophenyl)-4,5,13-trimethyl-3-thia-1,8,11,12-tetraazatricyclo[8.3.0.0^2,6]trideca-2(6),4,7,10,12-pentaen-9-yl]-N-{[1-(2-{2-[2-(2-{[2-(2,6-dioxopiperidin-3-yl)-1-oxo-1,2-dihydrophthalazin-5-yl]amino}ethoxy)ethoxy]ethoxy}ethyl)-1H-1,2,3-triazol-4-yl]methyl}acetamide]
568 nM |  |  | 66.5 nM | Cc1sc2c(c1C)C(c1ccc(Cl)cc1)=N[C@@H](CC(=O)NCCCN1CCN(CCCNc3cccc4cnn(C5CCC(=O)NC5=O)c(=O)c34)CC1)c1nnc(C)n1-2 (stereo partly drawn) [Example 38, 2-((S)-4-(4-chlorophenyl)-2,3,9-trimethyl-6H-thieno[3,2-f][1,2,4]triazolo[4,3-a][1,4]diazepin-6-yl)-N-(3-(4-(3-((3-(2,6-dioxopiperidin-3-yl)-4-oxo-3,4-dihydrophthalazin-5-yl)amino)propyl)piperazin-1-yl)propyl)acetamide]
622 nM |  |  |  | Cc1sc2c(c1C)C(c1ccc(Cl)cc1)=N[C@@H](CC(=O)NCC1CCN(c3cccc4cnn(C5CCC(=O)NC5=O)c(=O)c34)C1)c1nnc(C)n1-2 (stereo partly drawn) [Example 50, 2-((S)-4-(4-chlorophenyl)-2,3,9-trimethyl-6H-thieno[3,2-f][1,2,4]triazolo[4,3-a][1,4]diazepin-6-yl)-N-((1-(3-(2,6-dioxopiperidin-3-yl)-4-oxo-3,4-dihydrophthalazin-5-yl)pyrrolidin-3-yl)methyl)acetamide]
127 nM |  |  |  | Cc1sc2c(c1C)C(c1ccc(Cl)cc1)=N[C@@H](CC(=O)NCCCCCNc1cccc3cnn(C4CCC(=O)NC4=O)c(=O)c13)c1nnc(C)n1-2 (stereo partly drawn) [Example 52, 2-[(9S)-7-(4-chlorophenyl)-4,5,13-trimethyl-3-thia-1,8,11,12-tetraazatricyclo[8.3.0.0^2,6]trideca-2(6),4,7,10,12-pentaen-9-yl]-N-(5-{[3-(2,6-dioxopiperidin-3-yl)-4-oxo-3,4-dihydrophthalazin-5-yl]amino}pentyl)acetamide]
> 1000 nM |  |  |  | Cc1sc2c(c1C)C(c1ccc(Cl)cc1)=N[C@@H](CC(=O)NCC1CCN(c3cccc4cnn(C5CCC(=O)NC5=O)c(=O)c34)CC1)c1nnc(C)n1-2 (stereo partly drawn) [Example 53, 2-((S)-4-(4-chlorophenyl)-2,3,9-trimethyl-6H-thieno[3,2-f][1,2,4]triazolo[4,3-a][1,4]diazepin-6-yl)-N-((1-(3-(2,6-dioxopiperidin-3-yl)-4-oxo-3,4-dihydrophthalazin-5-yl)piperidine-4-yl)methyl)acetamide]

— patent publication US12384756B2, “Piperidinedione derivatives” (INNOCURE THERAPEUTICS, INC., priority 2021, dated 2025)
